Data on two molecules can be found in patent publication US7388024B2, “Indeno[2,1A]indenes and isoindolo[2,1-A]indoles” (Suven Life Sciences Limited, priority 2004, dated 2008).

This test concerns the target T1, Human 5HT6 Receptor (Homo sapiens, UniProt P50406).
T1 construct: expressed in transfected cells; host or cells: HEK293 cells
The test is described as follows: Binding Assay for Human 5HT6 Receptor. Particulars: [3H]LSD 1.5 nM; human recombinant receptor expressed in HEK293 cells. On the procedure:
Binding Assay for Human 5HT6 Receptor
Receptor source: Human recombinant expressed in HEK293 cells
Radioligand: [^3H]LSD (60-80 Ci/mmol)
Final ligand concentration—[1.5 nM]
Non-specific determinant: Methiothepin mesylate—[0.1 μM]
Reference compound: Methiothepin mesylate
Positive control: Methiothepin mesylate
Reactions are carried out in 50 mM TRIS-HCl (pH 7.4) containing 10 mM MgCl2, 0.5 mM EDTA for 60 minutes at 37° C. The reaction is terminated by rapid vacuum filtration onto glass fiber filters. Radioactivity trapped onto the filters is determined and compared to control values in order to ascertain any interactions of test compound(s) with the cloned serotonin—5HT6 binding site.
• Monsma F. J. Jr., et al., Molecular Cloning and Expression of Novel Serotonin Receptor with High Affinity for Tricyclic Psychotropic Drugs. Mol. Pharmacol. (43): 320-327 (1993).

T1 sequence (P50406 whole entry): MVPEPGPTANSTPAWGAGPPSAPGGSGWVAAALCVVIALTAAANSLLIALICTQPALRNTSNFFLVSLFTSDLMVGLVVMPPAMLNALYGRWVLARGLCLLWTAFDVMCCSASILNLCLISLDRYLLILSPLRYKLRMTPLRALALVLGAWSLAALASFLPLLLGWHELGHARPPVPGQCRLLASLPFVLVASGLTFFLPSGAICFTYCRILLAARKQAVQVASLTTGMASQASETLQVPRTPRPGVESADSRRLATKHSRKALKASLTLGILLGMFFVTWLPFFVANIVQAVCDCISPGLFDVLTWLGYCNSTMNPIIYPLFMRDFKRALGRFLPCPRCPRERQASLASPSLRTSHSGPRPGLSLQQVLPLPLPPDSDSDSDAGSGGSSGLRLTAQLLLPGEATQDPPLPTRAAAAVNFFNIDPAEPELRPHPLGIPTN

What is called IC50 is the midpoint of a concentration-inhibition curve. One may read the Ki as a measure of affinity in units of concentration, obtained from inhibition or displacement. `COc1ccc2c(c1)c(C1CCN(C)C1)c1n2S(=O)(=O)c2ccccc2-1` (stereo not shown) [drawing 19]: the IC50 stood at 205 nM and the Ki worked out at 88.1 nM.
Take `COc1ccc2c(c1)c(C1CCN(C)C1)c1n2S(=O)(=O)c2ccccc2-1` (stereo not shown) [drawing 20]: the IC50 amounted to 383 nM and the Ki amounted to 172 nM.
